Where a SMILES comes first, the peptide text is derived from it.
Tests used:
wild type BRD1-BD = target: T1, wild type BRD1-BD (Homo sapiens, UniProt O95696); experiment: ITC binding to wild type BRD1 bromodomain
T1 sequence (O95696 562-666 limits assumed): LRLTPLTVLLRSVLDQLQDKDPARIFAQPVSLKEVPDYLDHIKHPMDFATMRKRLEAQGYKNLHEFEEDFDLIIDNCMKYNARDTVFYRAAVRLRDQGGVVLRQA

BRD4-BD1 [1] = experiment: ITC binding to BRD4-BD1; conditions: BRD4-BD1 Kd (ref 36) compared to that of BRD1-BD
BRD4-BD1 [2] = conditions: as measured previously; cited from earlier work

In the case of `CC(=O)NCCCC[C@H](NC(=O)CNC(=O)[C@H](C)NC(=O)[C@H](C)NC(=O)[C@H](CCCCNC(C)=O)NC(=O)[C@H](C)N)C(=O)N[C@@H](CC(C)C)C(=O)N[C@@H](CCCCNC(C)=O)C(=O)N[C@@H](C)C(N)=O` [peptide 6] (H-AK(Ac)AAGK(Ac)LK(Ac)A-NH2), the Kd (wild type BRD1-BD) is given as 24.5 ± 11.7 µM, the “Kd for BRD4-BD1 relative to BRD1-BD (fold higher)” value (BRD4-BD1 [1]) is given as “about 15 fold” and the Kd (BRD4-BD1 [2]) is given as 353 µM.

Source: article PMC9347360 (RSC Chemical Biology, 2022)
